Laboratory results published in patent US9205064B2, “Methods for the diagnosis of oncological disorders using epimetabolic shifters, multidimensional intracellular molecules, or environmental influencers” (Berg LLC, priority 2009, dated 2015).

Tests used:
[1] = tested on: HepG2 (liver cancer) cells; experiment: Real-time PCR Apoptosis Array; format: cell-based
Procedure: The treatment was initiated on 1×10^5 cells per well, following the procedure utilized in the PaCa2 cells (above, Examples 9-11). However, the total amount of RNA that was extracted from these samples was lower than expected. Reverse transcription is normally done using 1 μg of total RNA (determined by measurement at 260 nm). The maximum volume that can be used per reverse transcription is 8 μl.
However, the array for 48 hours was run choosing FAM as the fluorophore instead of SYBR. Both FAM and SYBR fluoresce at the same wavelength.

SKBr3 = experiment: Nexin assay for apoptosis (Annexin-V-PE/7-AAD, flow cytometry); format: cell-based, human; conditions: 50 μM or 100 μM Q10, 24 hours
Source text: The 7AAD dye will enter into cells with permeabilized cell membranes; primarily those cells that are in late apoptosis. Annexin-V-PE is a dye that binds to Phosphotidyl serine, which is exposed on the outer surface of the plasma membrane in early apoptotic cells. The Nexin reagent thus can be used to differentiate between different populations of apoptotic cells in a flow cytometer.

SCC cells = experiment: Real-time PCR Apoptosis Array; format: cell-based
Procedure: The control cells were untreated cells.
RNA was quantified by measuring Optical Density at 260 nm.
The genes in the Apoptosis array that appear to be regulated in SCC cells are described in Table 7. […] By 24 hours, the regulation is decreased.

[2] = tested on: Lactate Dehydrogenase (LDH); experiment: Western blot of lactate dehydrogenase levels; format: cell-based, human; conditions: cancer cells
Procedure: The samples were processed and run on a 4-12% Bis-Tris Novex NuPAGE gel as described above. The gels were run, transferred and stained essentially as described above.
After transfer each blot was dried for 15-20 minutes, activated with methanol for 5 seconds, washed with water for 5 minutes, and TBST for 15 minutes. The blots were blocked for 1 hour with 5% blocking reagent in TBS-T at room temperature and then washed 3 times with TBS-T (1×-15′; 2×5′ each) and probed with the primary antibody for Lactate Dehydrogenase (abcam ab2101; polyclonal) in 5% BSA (at 1:1000 dilutions) by incubation overnight at 4 deg C. with shaking. After the overnight incubation with primary antibody for Lactate Dehydrogenase, the blots were washed 3 times with TBS-T (1×-15′; 2×5′ each) and probed with the secondary antibody (rabbit antigoat; 1:10,000 dilution) for 1 h at room temperature. After 1 h of incubation with secondary antibodies, the blots were washed 3 times with TBS-T (1×-15′; 2×5′ each) and then incubated with ECF reagent for 5 mins and then each blot scanned with 5100 Fuji Laser scanner at 25 uM resolution, 16 bit, green laser, at 400V and at 500 V. […]
The levels of LDH and PDH were determined by probing the blots successively with primary antibodies for LDH and PDH, essentially as described above. […]

SKMEL-28 mitochondria = experiment: 2-D gel electrophoresis of mitochondria enriched samples; format: cell-based

## COC1=C(OC)C(=O)C(C/C=C(\C)CC/C=C(\C)CC/C=C(\C)CC/C=C(\C)CC/C=C(\C)CC/C=C(\C)CC/C=C(\C)CC/C=C(\C)CC/C=C(\C)CCC=C(C)C)=C(C)C1=O [Q10, Coenzyme Q10]
[1]; 100 μM Q10, gene BAG1
  genes regulated in the Apoptosis Arrays: BAG1
[1]; 100 μM Q10, gene CASP9
  genes regulated in the Apoptosis Arrays: CASP9
[1]; 100 μM Q10, gene TNFRSF1A
  genes regulated in the Apoptosis Arrays: TNFRSF1A
SKBr3
  early and late apoptosis: did not show any significant increases
SCC cells; 100 μM Q10, 6 hours
  AKT1 mRNA Regulation: Down regulated at 6 hours and then
  BCL2L1 mRNA Regulation: Down regulated at 6 hours and then
  BIRC3 mRNA Regulation: Down regulated at 6 hours.
  CARD6 mRNA Regulation: Down regulated at 6 hours.
  CD27 mRNA Regulation: Down regulated at 6 hours.
  CD40 mRNA Regulation: Down regulated at 6 hours.
  CD70 mRNA Regulation: Down regulated at 6 hours.
  TNFRSF9 mRNA Regulation: Down regulated at 6 hours.
  TNFRSF21 mRNA Regulation: Down regulated at 6 hours.
  TNFRSF25 mRNA Regulation: Down regulated at 6 hours and then
  TP73 mRNA Regulation: Down regulated at 6 hours and then
SCC cells; 100 μM Q10, 24 hours
  AKT1 mRNA Regulation: up regulated at 24 hours.
  BAG4 mRNA Regulation: Up regulated at 24 hours.
  BAX mRNA Regulation: Up regulated at 24 hours.
  BCL2L1 mRNA Regulation: up regulated at 24 hours.
  BCL2 mRNA Regulation: Up regulated at 24 hours.
  BNIP3 mRNA Regulation: Down regulated at 24 hours.
  CASP6 mRNA Regulation: Up regulated at 24 hours.
  CASP7 mRNA Regulation: Up regulated at 24 hours.
  FADD mRNA Regulation: Up regulated at 24 hours.
  GADD45A mRNA Regulation: Up regulated at 24 hours.
  HRK mRNA Regulation: Up regulated at 24 hours.
  TNFRSF25 mRNA Regulation: up regulated at 24 hours.
  TNFSF10 mRNA Regulation: Up regulated at 24 hours.
  TP53 mRNA Regulation: Up regulated at 24 hours.
  TP73 mRNA Regulation: up regulated at 24 hours.
  TRAF2 mRNA Regulation: Up regulated at 24 hours.
[2]
  Lactate Dehydrogenase (LDH) expression: reduced
SKMEL-28 mitochondria; 100 μM Q10, 19 and 48 hr
  PDIA3 (ER60 protein), spot 110: Response: Up at 19 and 48 hr
  Unknown, spot 131: Response: drops more for 19
SKMEL-28 mitochondria; 100 μM Q10, 48 hr
  CCDC58, spot 75: Response: Up at 48 hr
SKMEL-28 mitochondria; 100 μM Q10, after 6 hr
  Unknown protein, spot 11: Response: drop to low levels
SKMEL-28 mitochondria; 100 μM Q10, only at 19 hr
  Beta-Actin, spot 202: Response: Up only at 19 hr
  KRT10 (Keratin 10), spot 185: Response: Up only at 19 hr
  MLEC (Malectin), spot 246: Response: Up only at 19 hr
